Laboratory results reported in patent US6599906B1, “Method of local anesthesia and analgesia” (priority 2000, dated 2003).
Several values for one entry are separate records, joined by “and”; a condition that tells them apart may be missing. Equal values may be shown once. Read-outs that look alike come from different tables or passages of the source.

Tests used:
[1] = tested on: pain induced by tooth pulp stimulation; format: in vivo, New Zealand white rabbits
tooth pain = settings: background statement, patients; cited from earlier work
rabbits [2] = settings: rabbit, in vivo
rabbits [3] = settings: rabbit, in vivo; remark: listed apart in the source
rabbits [4] = settings: rabbit, in vivo; remark: listed apart in the source
[5] = tested on: pain induced by tooth pulp stimulation; parameters: species or system rabbits; settings: rabbit, in vivo; read-out: EC50 value and 95% confidence interval for dental local analgesia

CCN(CC)CC(=O)Nc1c(C)cccc1C [lidocaine]
Percentage change in pain-inducing threshold voltage ([1]; rabbit, in vivo): 30 ± 29% and 28 ± 36% and 26 ± 30% and 20 ± 32% and 24 ± 32% and 17 ± 21%
effect on the threshold voltage compared to the solvent control, in words ([1]; rabbit, in vivo): markedly increased the threshold voltage
synergistic activity with TTX, in words ([1]; rabbit, in vivo): did not show a similar synergistic activity

CCN(CC)CCOC(=O)c1ccc(N)cc1 [procaine]
period of partial pain relief as topical anesthetic for tooth pain (tooth pain): about 1 hour
Percentage change in pain-inducing threshold voltage ([1]; 2% anesthetic, 20 μL to tooth pulp cavity, 10 min): −2 ± 20%
Percentage change in pain-inducing threshold voltage ([1]; 2% anesthetic, 20 μL to tooth pulp cavity, 20 min): −2 ± 20%
Percentage change in pain-inducing threshold voltage ([1]; 2% anesthetic, 20 μL to tooth pulp cavity, 30 min): −4 ± 23%
Percentage change in pain-inducing threshold voltage ([1]; 2% anesthetic, 20 μL to tooth pulp cavity, 40 min): −3 ± 22%
Percentage change in pain-inducing threshold voltage ([1]; 2% anesthetic, 20 μL to tooth pulp cavity, 50 min): −2 ± 28%
Percentage change in pain-inducing threshold voltage ([1]; 2% anesthetic, 20 μL to tooth pulp cavity, 60 min): −1 ± 26%
effect on the threshold voltage compared to the solvent control, in words ([1]; rabbit, in vivo): no clear effect on the threshold voltage

CCCCNc1ccc(C(=O)OCCN(C)C)cc1 [tetracaine]
period of partial pain relief as topical anesthetic for tooth pain (tooth pain): about 1 hour
Percentage change in pain-inducing threshold voltage ([1]; 1% tetracaine (equal to 33 mM), 20 μL to tooth pulp cavity, 10 min): 27 ± 30%
Percentage change in pain-inducing threshold voltage ([1]; 1% tetracaine (equal to 33 mM), 20 μL to tooth pulp cavity, 20 min): 32 ± 38%
Percentage change in pain-inducing threshold voltage ([1]; 1% tetracaine (equal to 33 mM), 20 μL to tooth pulp cavity, 30 min): 29 ± 31%
Percentage change in pain-inducing threshold voltage ([1]; 1% tetracaine (equal to 33 mM), 20 μL to tooth pulp cavity, 40 min): 32 ± 22%
Percentage change in pain-inducing threshold voltage ([1]; 1% tetracaine (equal to 33 mM), 20 μL to tooth pulp cavity, 50 min): 22 ± 15%
Percentage change in pain-inducing threshold voltage ([1]; 1% tetracaine (equal to 33 mM), 20 μL to tooth pulp cavity, 60 min): 16 ± 18%
Percentage change in pain-inducing threshold voltage ([1]; Table 7, 1% tetracaine, 20 μL to tooth pulp cavity, 15 min): 27 ± 30%
Percentage change in pain-inducing threshold voltage ([1]; Table 7, 1% tetracaine, 20 μL to tooth pulp cavity, 45 min): 32 ± 22%
effect on the threshold voltage compared to the solvent control, in words ([1]; rabbit, in vivo): markedly increased the threshold voltage

NC1=N[C@H](O)[C@H]2[C@H]3O[C@]4(O)O[C@@H]([C@@H](O)[C@@]2(N1)[C@@H]4O)[C@]3(O)CO [tetrodotoxin, Tetrodotoxin]
RR (respiratory rate) (rabbits [2]): 99 ± 11 and 102 ± 2 and 102 ± 6 and 91 ± 10 and 94 ± 12 and 99 ± 5
effect on ECG, in words (rabbits [2]): did not suggest any significant effect
effect on heart rate or respiratory rate, in words (rabbits [2]): did not significantly modify the heart rate or respiratory rate
ALP (rabbits [3]): 69 ± 17 U/L and 71 ± 23 U/L
ALT (rabbits [3]): 67 ± 43 U/L and 53 ± 19 U/L
BUN (rabbits [3]): 8.4 ± 0.9 mmol/L and 8.5 ± 1.7 mmol/L
CO2 in serum (rabbits [3]): 26.4 ± 1.2 mmol/L and 30.0 ± 2.5 mmol/L
Ca^2+ in serum (rabbits [3]): 3.26 ± 0.18 mmol/L and 3.34 ± 0.12 mmol/L
Cre (rabbits [3]): 109 ± 12 µmol/L and 99 ± 6 µmol/L
GTP (rabbits [3]): 5.2 ± 1.3 U/L and 5.7 ± 2.1 U/L
HCT (rabbits [3]): 38.5 ± 3.4% and 33.6 ± 1.9%
HGB (rabbits [3]): 12.4 ± 1.0 g/dL and 11.3 ± 0.6 g/dL
IP (rabbits [3]): 1.66 ± 0.23 mmol/L and 1.46 ± 0.40 mmol/L
K^+ in serum (rabbits [3]): 3.8 ± 0.3 mmol/L and 3.8 ± 0.1 mmol/L
LAP (rabbits [3]): 109 ± 11 µmol/L and 108 ± 10 µmol/L
MCH (rabbits [3]): 22.2 ± 1.4 pg and 22.5 ± 1.1 pg
MCHC (rabbits [3]): 32.4 ± 1.3 g/dL and 33.6 ± 0.6 g/dL
MCV (rabbits [3]): 68.5 ± 2.8 fL and 66.9 ± 2.1 fL
Na^+ in serum (rabbits [3]): 141.1 ± 1.1 mmol/L and 141.7 ± 1.8 mmol/L
PLT (rabbits [3]): 141 ± 120 ×10^3/μl and 159 ± 37 ×10^3/μl
TBA (rabbits [3]): 13.5 ± 12.0 U/L and 14.5 ± 9.2 U/L
TP (rabbits [3]): 60 ± 6 g/L and 57 ± 6 g/L
WBC (rabbits [3]): 4.2 ± 1.2 ×10^3/μl and 6.6 ± 2.4 ×10^3/μl
effect on the blood cellular or biochemical parameters, in words (rabbits [3]): did not have any significant effect
rabbits manifesting increased excretion in the respiratory tract (rabbits [4]): 4 out of 10
onset of the effect of TTX increasing the threshold voltage ([1]; rabbit, in vivo): 5 min
time at which peak of effect on threshold voltage was reached ([1]; rabbit, in vivo): 1 h
EC50 [5]: 1040 ± 30 µM
